Measured values reported in paper PMC6332318, “Synthetic Development of New 3-(4-Arylmethylamino)butyl-5-arylidene-rhodanines under Microwave Irradiation and Their Effects on Tumor Cell Lines and against Protein Kinases” (Molecules, 2015).

How the values were obtained:
HsHaspin = biological target: T1, HsHaspin (Homo sapiens, UniProt Q8TF76); assay: protein kinase assay, [γ-33P] ATP; format: biochemical
T1 construct: HsHaspin-kd aa 470 to 798; GST (from vector pGEX-6P-3; tag and N-terminal position are own knowledge of the vector) (N); made in house; host or cells: Escherichia coli BL21-KRX
T1 sequence (Q8TF76 470-798): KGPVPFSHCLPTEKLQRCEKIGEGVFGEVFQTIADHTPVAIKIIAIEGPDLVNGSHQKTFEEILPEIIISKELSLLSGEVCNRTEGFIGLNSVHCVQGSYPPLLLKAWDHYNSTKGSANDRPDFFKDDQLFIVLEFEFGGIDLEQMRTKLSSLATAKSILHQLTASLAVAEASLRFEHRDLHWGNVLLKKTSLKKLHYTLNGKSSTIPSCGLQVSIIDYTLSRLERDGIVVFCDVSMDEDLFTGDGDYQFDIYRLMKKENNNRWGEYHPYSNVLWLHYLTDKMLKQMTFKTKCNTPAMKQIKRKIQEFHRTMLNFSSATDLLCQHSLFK
Procedure: Then, we evaluated the intermediates salts 6a–f and fourteen final compounds 9a–n on four protein kinases: HsCDK5-p25 (cyclin-dependant kinase 5-p25), SsGSK-3α/β (glycogen synthase kinase-3α/β) SsCK1δ/ε (Caseine kinase 1) and HsHaspin as an essential mitotic kinase. […] IC50 values were determined from dose-response curves.
ATP (3000 Ci/mmol; 10 mCi/mL) in a final volume of 30 µL. After 30 min incubation at 30 °C, the reaction was stopped by harvesting, using a FilterMate harvester (Packard, Meriden, CT, USA), onto P81 phosphocellulose papers (GE Healthcare, Velizy-Villacoublay, France) which were washed in 1% phosphoric acid. Scintillation fluid was added and the radioactivity measured in a Packard counter. Blank values were subtracted and activities calculated as pmoles of phosphate incorporated during the 30 min incubation. The activities were expressed in a percentage of the maximal activity, i.e., in the absence of inhibitors. Controls were performed with appropriate dilutions of DMSO. CK1 and Haspin peptide substrates were obtained from Proteogenix (Oberhausbergen, France).
Haspin kinase domain (HsHaspin-kd aa 470 to 798) encoding cDNA, obtain by RT-PCR, was cloned into pGex-6P-3. The fusion protein was expressed in Escherichia coli strain BL21-KRX (Promega, Madison, WI, USA) and purified by affinity chromatography on glutathione-agarose beads (Sigma). Haspin-kd activity was assayed with 3 µM Histone H3 (1-21) peptide, a specific Haspin substrate, ([…]), in Buffer H (MOPS 25 mM pH 7.5; 10 mM MgCl2).

[1] = test system: panel of seven representative tumoral cell lines; assay: in vitro inhibition of cell proliferation, whole panel; format: cell-based; details: all cell lines of the panel, without selectivity; read-out: IC50, moderate antitumor activities in all cell lines of the panel
Procedure: As an initial effort to investigate their in vitro bioactivity, the new synthesized 3-(4-arylmethylamino)butyl-2-thioxo-1,3-thiazolidine-4-one 9a–n and also their precursors 6a–f were evaluated for their in vitro inhibition of cell proliferation. For this study, we used a panel of seven representative tumoral cell lines, namely HuH7 D12 (differential hepato cellular carcinoma), Caco 2 (differentiating colorectal adenocarcinoma), MDA-MBD231 ([…]), HCT 116 (actively proliferating colorectal adenocarcinoma), PC3 (prostate carcinoma), NCI-H727 (lung carcinoma), HaCat keratinocyte and, diploid skin fibroblasts as normal cell lines for control.
Skin diploid fibroblastic cells were provided by BIOPREDIC International Company (Rennes, France). Caco2 (Ref ECACC: 86010202), Huh-7D12 (Ref ECACC: 01042712), MDA-MB-231 (Ref ECACC: 92020424), HCT-116 (Ref ECACC: 91091005), PC3 (Ref ECACC: 90112714), NCI-H727 (Ref ECACC: 94060303) cell lines were obtained from the ECACC collection and HaCaT (from Cell Lines Service, Eppelheim, Germany). Cells were grown according to ECACC recommendations. […] Cells were fixed in cooled solution of 90% ethanol/5% acetic acid, nuclei were stained with Hoechst 3342 (Sigma) and counted using automated imaging analysis (Cellomics Arrayscan VTI/HCS Reader, Thermo/Scientific, Waltham, MA, USA). The IC50 were graphically determined.

Row | IC50 (HsHaspin) | IC50 [1] | Compound
1 | > 10 µM | 10 to 17 µM | O=C1/C(=C/c2ccc3c(c2)OCO3)SC(=S)N1CCCCNCc1ccc2c(c1)OCO2 [Compound 9h, (5Z)3-[4-(1,3-Benzodioxol-5-ylmethylamino)butyl]-5-(1,3-benzodioxol-5-ylmethylene)-2-thioxo-1,3-thiazolidin-4-one]
2 | > 10 µM | – | O=C1/C(=C/c2ccc3c(c2)OCCO3)SC(=S)N1CCCCNCc1ccc2c(c1)OCO2 [Compound 9i, (5Z)3-[4-(1,3-Benzodioxol-5-ylmethylamino)butyl]-5-(2,3-dihydro-1,4-benzodioxin-6-ylmethylene)-2-thioxo-1,3-thiazolidin-4-one]
3 | > 10 µM | – | O=C1/C(=C/c2ccc(O)cc2)SC(=S)N1CCCCNCc1ccc2c(c1)OCO2 [Compound 9j, (5Z)3-[4-(1,3-Benzodioxol-5-ylmethylamino)butyl]-5-(4-hydroxy-benzylidene)-2-thioxo-1,3-thiazolidin-4-one]
4 | > 10 µM | – | COc1cc(/C=C2\SC(=S)N(CCCCNCc3ccc4c(c3)OCCO4)C2=O)ccc1O [Compound 9n, (5Z)3-[4-(2,3-Dihydro-benzo[1,4]dioxin-6-ylmethylamino)butyl]-5-(4-hydroxy-3-methoxybenzylidene)-2-thioxo-1,3-thiazolidin-4-one]
